3 compounds from PMC10004634 (PLOS ONE, 2023) can be followed below.

Holding throughout (experiment): biochemical
Common to all, as to parameters: KINOMEscan scanMAX competition binding, DNA-tagged kinases, qPCR read-out, percent control at 300 nM
For orientation: Quantitative PCR measures a nucleic acid by following its amplification.

In one assay the target is NEK5 (Homo sapiens, UniProt Q6P3R8). The note with it: read-out: Percent control / Acalabrutinib.
The target in another assay is T1, PYK2 (Homo sapiens, UniProt Q14289).
T1 construct: gene PTK2B
The note with it: read-out: Percent control / Acalabrutinib.

Assay [1] addresses T2, ABL1(F317I)-phosphorylated (Homo sapiens, UniProt P00519, F317I).
T2 construct: phosphorylated
The conditions noted are these: read-out: Percent control / Acalabrutinib.

The next assay addresses TAOK2 (Homo sapiens, UniProt Q9UL54). The note with it: read-out: Percent control / Acalabrutinib.
The next assay concerns the target EPHA1 (Homo sapiens, UniProt P21709). The conditions noted are these: read-out: Percent control / Acalabrutinib.
The target of assay [2] is T3, ABL1(Q252H)-nonphosphorylated (Homo sapiens, UniProt P00519, Q252H).
T3 construct: nonphosphorylated
The note with it: read-out: Percent control / Acalabrutinib.

In the next assay the target is MAP3K3 (Homo sapiens, UniProt Q99759). The note with it: read-out: Percent control / Acalabrutinib.
Assay [3] has as its target T4, ABL1(T315I)-nonphosphorylated (Homo sapiens, UniProt P00519, T315I).
T4 construct: nonphosphorylated
The note with it: read-out: Percent control / Acalabrutinib.

A further assay deals with T5, NDR2 (Homo sapiens, UniProt Q9Y2H1).
T5 construct: gene STK38L
The conditions noted are these: read-out: Percent control / Acalabrutinib.

For another assay, the target named is CAMK2A (Homo sapiens, UniProt Q9UQM7). The note with it: read-out: Percent control / Ibrutinib.
A further assay addresses T6, MEK4 (Homo sapiens, UniProt P45985).
T6 construct: gene MAP2K4
The conditions noted are these: read-out: Percent control / Zanubrutinib.

The target of a further assay is CASK (Homo sapiens, UniProt O14936). The conditions noted are these: read-out: Percent control / Zanubrutinib.
The target in another assay is PIK3CA(C420R) (Homo sapiens, UniProt P42336, C420R). The note with it: read-out: Percent control / Zanubrutinib.
A further assay deals with TNK1 (Homo sapiens, UniProt Q13470). The note with it: read-out: Percent control / Zanubrutinib.
The target of another assay is LRRK2(G2019S) (Homo sapiens, UniProt Q5S007, G2019S). The note with it: read-out: Percent control / Zanubrutinib.
The next assay has as its target T7, TRKC (Homo sapiens, UniProt Q16288).
T7 construct: gene NTRK3
The conditions noted are these: read-out: Percent control / Zanubrutinib.

A further assay concerns the target CDK5 (Homo sapiens, UniProt Q00535). The conditions noted are these: read-out: Percent control / Zanubrutinib.
A further assay addresses T8, SNARK (Homo sapiens, UniProt Q9H093).
T8 construct: gene NUAK2
The conditions noted are these: read-out: Percent control / Zanubrutinib.

In assay [4] the target is T9, ABL1(M351T)-phosphorylated (Homo sapiens, UniProt P00519, M351T).
T9 construct: phosphorylated
The conditions noted are these: read-out: Percent control / Zanubrutinib.

For the next assay, the target named is PIM3 (Homo sapiens, UniProt Q86V86). The note with it: read-out: Percent control / Zanubrutinib.
Another assay addresses T10, DCAMKL1 (Homo sapiens, UniProt O15075).
T10 construct: gene DCLK1
The conditions noted are these: read-out: Percent control / Zanubrutinib.

In a further assay the target is ZAP70 (Homo sapiens, UniProt P43403). The conditions noted are these: read-out: Percent control / Zanubrutinib.
A further assay has as its target CSNK2A2 (Homo sapiens, UniProt P19784). The conditions noted are these: read-out: Percent control / Zanubrutinib.

Chain of EPHA1 (P21709 whole entry): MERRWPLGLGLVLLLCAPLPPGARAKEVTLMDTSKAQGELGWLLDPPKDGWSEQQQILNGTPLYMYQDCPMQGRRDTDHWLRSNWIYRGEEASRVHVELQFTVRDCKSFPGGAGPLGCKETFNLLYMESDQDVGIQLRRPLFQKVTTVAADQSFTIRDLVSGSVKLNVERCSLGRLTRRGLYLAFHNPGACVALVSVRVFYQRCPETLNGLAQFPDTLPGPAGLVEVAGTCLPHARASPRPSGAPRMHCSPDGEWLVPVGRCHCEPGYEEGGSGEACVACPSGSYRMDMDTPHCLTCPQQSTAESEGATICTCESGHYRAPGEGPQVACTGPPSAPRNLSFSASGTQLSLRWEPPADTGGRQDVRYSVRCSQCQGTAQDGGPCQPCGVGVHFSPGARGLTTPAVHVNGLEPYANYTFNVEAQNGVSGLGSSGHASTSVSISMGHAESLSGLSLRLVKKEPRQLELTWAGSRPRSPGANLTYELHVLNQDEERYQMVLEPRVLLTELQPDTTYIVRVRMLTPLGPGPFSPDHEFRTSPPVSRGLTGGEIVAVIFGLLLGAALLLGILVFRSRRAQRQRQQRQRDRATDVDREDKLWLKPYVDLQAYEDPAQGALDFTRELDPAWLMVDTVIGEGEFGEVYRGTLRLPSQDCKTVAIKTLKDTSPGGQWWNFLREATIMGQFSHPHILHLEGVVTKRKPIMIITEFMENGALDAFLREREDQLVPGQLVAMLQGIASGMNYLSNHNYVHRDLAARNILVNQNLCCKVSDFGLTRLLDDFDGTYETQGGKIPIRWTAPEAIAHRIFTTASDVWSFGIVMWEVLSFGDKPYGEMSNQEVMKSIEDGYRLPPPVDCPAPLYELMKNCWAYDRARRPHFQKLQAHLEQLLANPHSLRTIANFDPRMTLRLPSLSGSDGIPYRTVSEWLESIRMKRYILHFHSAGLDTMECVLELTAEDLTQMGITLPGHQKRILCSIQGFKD
Chain of ZAP70 (P43403 whole entry): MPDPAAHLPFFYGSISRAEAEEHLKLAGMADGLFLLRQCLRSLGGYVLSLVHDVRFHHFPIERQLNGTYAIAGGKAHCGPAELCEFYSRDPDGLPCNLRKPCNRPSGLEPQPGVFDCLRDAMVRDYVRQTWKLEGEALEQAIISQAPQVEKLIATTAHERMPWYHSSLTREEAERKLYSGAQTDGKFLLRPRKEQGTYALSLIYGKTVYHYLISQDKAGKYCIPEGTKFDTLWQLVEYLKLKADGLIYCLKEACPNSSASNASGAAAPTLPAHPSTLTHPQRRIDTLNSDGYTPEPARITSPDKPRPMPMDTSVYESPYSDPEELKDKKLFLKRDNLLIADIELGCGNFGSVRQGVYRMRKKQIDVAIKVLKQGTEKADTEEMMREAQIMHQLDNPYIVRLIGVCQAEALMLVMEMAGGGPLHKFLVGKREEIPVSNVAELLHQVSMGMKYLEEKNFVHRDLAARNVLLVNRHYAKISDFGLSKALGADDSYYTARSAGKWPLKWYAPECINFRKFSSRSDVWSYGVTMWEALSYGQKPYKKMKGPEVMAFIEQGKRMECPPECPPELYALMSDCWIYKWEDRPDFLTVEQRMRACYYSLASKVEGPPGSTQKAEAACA
Chain of MAP3K3 (Q99759 whole entry): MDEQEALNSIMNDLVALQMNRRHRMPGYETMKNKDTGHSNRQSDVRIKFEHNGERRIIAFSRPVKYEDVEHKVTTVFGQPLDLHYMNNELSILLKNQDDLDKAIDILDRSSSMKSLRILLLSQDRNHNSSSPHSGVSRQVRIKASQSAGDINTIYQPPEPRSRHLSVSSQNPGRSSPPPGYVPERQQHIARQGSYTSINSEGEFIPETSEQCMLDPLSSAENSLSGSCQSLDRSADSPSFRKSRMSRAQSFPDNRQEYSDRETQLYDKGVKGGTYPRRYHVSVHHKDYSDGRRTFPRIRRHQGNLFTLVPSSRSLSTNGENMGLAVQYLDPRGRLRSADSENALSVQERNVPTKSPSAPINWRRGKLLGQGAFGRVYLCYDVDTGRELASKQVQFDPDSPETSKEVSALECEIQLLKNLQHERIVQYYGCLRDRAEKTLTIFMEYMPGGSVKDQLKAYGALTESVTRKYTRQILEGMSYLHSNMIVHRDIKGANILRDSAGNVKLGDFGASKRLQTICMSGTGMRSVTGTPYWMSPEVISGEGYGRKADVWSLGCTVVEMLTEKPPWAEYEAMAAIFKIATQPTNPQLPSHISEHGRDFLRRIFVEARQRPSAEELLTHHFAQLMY
T6 sequence (P45985 whole entry): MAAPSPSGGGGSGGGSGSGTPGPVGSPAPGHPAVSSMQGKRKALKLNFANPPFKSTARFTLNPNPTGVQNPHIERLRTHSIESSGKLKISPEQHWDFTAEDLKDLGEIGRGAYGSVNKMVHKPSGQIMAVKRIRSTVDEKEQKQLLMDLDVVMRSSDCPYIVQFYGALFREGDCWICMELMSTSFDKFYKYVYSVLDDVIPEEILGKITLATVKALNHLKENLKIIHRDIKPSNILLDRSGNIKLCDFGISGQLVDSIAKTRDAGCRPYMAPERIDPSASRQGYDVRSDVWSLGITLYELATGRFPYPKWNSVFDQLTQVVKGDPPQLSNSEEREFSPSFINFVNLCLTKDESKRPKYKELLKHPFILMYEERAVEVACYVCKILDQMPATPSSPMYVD
T5 sequence (Q9Y2H1 whole entry): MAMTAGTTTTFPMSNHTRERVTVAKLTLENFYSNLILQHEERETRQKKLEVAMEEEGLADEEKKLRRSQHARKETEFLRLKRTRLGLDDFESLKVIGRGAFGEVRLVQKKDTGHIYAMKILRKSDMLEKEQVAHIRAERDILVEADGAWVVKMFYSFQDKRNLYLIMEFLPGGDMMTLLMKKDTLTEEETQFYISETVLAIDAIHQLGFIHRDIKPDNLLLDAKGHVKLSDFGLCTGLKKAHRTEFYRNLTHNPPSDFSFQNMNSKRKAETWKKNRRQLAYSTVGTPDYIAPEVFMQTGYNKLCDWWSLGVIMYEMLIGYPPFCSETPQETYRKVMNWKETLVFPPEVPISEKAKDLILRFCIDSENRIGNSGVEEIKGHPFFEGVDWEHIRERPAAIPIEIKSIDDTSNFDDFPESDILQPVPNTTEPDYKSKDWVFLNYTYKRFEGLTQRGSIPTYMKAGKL
Chain of CSNK2A2 (P19784 whole entry): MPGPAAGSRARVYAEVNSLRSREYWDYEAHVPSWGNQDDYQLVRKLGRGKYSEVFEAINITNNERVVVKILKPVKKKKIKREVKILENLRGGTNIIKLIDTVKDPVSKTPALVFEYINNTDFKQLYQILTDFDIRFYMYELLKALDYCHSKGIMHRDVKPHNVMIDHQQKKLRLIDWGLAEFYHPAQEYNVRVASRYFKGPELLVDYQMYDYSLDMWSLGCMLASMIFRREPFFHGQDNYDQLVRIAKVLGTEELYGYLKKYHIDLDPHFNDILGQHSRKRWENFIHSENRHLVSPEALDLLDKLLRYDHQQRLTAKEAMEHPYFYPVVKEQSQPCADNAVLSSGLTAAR
T7 sequence (Q16288 whole entry): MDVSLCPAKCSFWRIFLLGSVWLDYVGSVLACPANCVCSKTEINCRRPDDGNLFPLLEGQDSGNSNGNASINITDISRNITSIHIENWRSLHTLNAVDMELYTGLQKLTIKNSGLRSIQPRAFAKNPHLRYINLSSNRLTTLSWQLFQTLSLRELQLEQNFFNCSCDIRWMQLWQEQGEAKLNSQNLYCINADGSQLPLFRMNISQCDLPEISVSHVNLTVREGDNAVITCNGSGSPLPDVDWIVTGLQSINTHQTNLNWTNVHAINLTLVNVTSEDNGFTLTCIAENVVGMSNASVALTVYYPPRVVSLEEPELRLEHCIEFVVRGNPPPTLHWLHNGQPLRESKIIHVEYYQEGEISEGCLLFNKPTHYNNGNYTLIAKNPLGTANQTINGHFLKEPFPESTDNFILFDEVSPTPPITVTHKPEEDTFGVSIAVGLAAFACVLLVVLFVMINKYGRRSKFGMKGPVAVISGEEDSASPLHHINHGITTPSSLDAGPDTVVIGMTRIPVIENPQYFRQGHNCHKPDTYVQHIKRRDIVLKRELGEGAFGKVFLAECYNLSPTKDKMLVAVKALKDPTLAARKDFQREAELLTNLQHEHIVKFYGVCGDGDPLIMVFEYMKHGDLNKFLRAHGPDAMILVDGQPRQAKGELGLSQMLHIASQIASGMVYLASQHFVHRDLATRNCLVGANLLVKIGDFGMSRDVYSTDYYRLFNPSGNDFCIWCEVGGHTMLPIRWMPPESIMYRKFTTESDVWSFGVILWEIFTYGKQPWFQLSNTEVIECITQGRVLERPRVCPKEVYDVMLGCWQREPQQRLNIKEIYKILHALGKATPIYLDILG
Chain of CDK5 (Q00535 whole entry): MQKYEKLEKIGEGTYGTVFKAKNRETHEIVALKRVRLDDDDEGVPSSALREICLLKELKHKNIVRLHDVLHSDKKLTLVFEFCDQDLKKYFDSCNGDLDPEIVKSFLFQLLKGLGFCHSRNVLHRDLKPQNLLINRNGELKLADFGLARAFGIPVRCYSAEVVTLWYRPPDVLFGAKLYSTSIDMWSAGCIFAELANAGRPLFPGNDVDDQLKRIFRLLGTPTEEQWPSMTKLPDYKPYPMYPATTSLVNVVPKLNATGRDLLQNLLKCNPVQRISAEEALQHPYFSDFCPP

Consider `CC#CC(=O)N1CCC[C@H]1c1nc(-c2ccc(C(=O)Nc3ccccn3)cc2)c2c(N)nccn12` [Acalabrutinib], for which the remaining binding at 0.3 µM at NEK5 turned out to be 96%; on PYK2, 89%; in assay [1], 94%; on TAOK2 it was 93%; on EPHA1, 85%; in assay [2], 84%. Also, the remaining binding at 0.3 µM is 86% at MAP3K3, 96% in assay [3] and 99% on NDR2.
`C=CC(=O)N1CCC[C@@H](n2nc(-c3ccc(Oc4ccccc4)cc3)c3c(N)ncnc32)C1` [Ibrutinib]: at CAMK2A, the remaining binding at 0.3 µM was 82%.
In the case of `C=CC(=O)N1CCC([C@@H]2CCNc3c(C(N)=O)c(-c4ccc(Oc5ccccc5)cc4)nn32)CC1` [Zanubrutinib], the remaining binding at 0.3 µM was determined as 93% at MEK4; 72% at CASK; 67% at PIK3CA(C420R); 93% at TNK1; 47% on LRRK2(G2019S); 97% at TRKC. Further, the remaining binding at 0.3 µM was 98% at CDK5; 97% at SNARK; 83% in assay [4]; 84% at PIM3; 100% at DCAMKL1; 68% at ZAP70. For the same compound, the remaining binding at 0.3 µM at CSNK2A2 was found to be 100%.
